Holding throughout (experiment): NCI tumour cell line growth inhibition, 48 h
Assay [1] deals with MCF7 breast.
Assay [2] has as its system IGROV1 ovarian.
Assay [3] has as its system SN12C renal.
In assay [4] the test system is SF-539 CNS.
For assay [5], the system named is SK-OV-3 ovarian.
For assay [6], the system named is SNB-19 CNS.
The test system of assay [7] is DU-145 prostate.
Assay [8] relates to SK-MEL-5 melanoma.
Assay [9] deals with 786-0 renal.
The subject of assay [10] is SF-268 CNS.

Where “and” joins values, the source holds several entries; their conditions need not be identical. Equal entries are not always repeated.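 Following 48 hours of exposure in 96-well plates, responses at five concentrations were used to interpolate endpoints linearly. GI50 = concentration required for 50% inhibition of growth. TGI denotes the concentration required for complete inhibition of growth.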

These results are taken from PubChem BioAssay (NCI).

As to `COc1ccc(N(CC(=O)NCCC[Te]c2ccccc2)C(=O)c2ccccc2)cc1`, the GI50 in [1] was 3.17 µM; in assay [2], 2.88 µM; in assay [3], 2.7 µM; in assay [4] it was 2.3 µM; in assay [5] it was 2.55 µM; in assay [6], 4.06 µM. Besides, the GI50 in assay [7] is 3.9 µM; in assay [8], 2.4 µM; in assay [9], 5.09 µM; in [10], 3.19 µM. Besides, the TGI in [1] stood at 10.8 µM; in assay [2] it was 8.27 µM; in assay [3], 8.51 µM; in [4], 6 µM; in assay [5], 6 µM; in assay [6] it was 59 µM. Moreover, the TGI in assay [7] was determined as 13.9 µM; in assay [8] it was 6.08 µM; in [9], 19.6 µM; in [10] it was 10.8 µM.
On to `Oc1ccc(-c2nnc3sc(-c4ccc(F)c(Oc5ccccc5)c4)nn23)cc1`, for which the GI50 in [1] is 14.6 µM; in assay [2], 47.4 µM; in assay [3] it was 37.6 µM; in [4], 24.2 µM; in assay [5], 44.6 µM; in assay [6], 34.6 µM. In addition, the GI50 in assay [7] was 35 µM; in assay [8] it was 18.6 µM; in [9] it was 21.8 µM; in assay [10], 18 µM. Also, the TGI in [1] was > 100 µM; in [2], > 100 µM; in assay [3], > 100 µM; in assay [4] it was 65 µM; in assay [5], > 100 µM; in assay [6], > 100 µM. The TGI is > 100 µM in assay [7], > 100 µM in assay [8], 50.3 µM in assay [9] and 53.2 µM in assay [10].
On to `O=C1CC(c2ccc(N3CCOCC3)cc2)(c2ccsc2)NC(=O)C1Sc1ccccc1Cl` (stereo not drawn), for which the GI50 in assay [1] was 57.2 µM; in assay [2] it was 22.4 µM; in assay [3], 10.1 µM; in assay [4] it was 56.4 µM; in [5], > 100 µM; in assay [6], 30.3 µM. Also, the GI50 is 85 µM in [7], 36.6 µM in assay [8], 6.53 µM in [9] and 20.2 µM in assay [10]. Besides, the TGI in assay [1], in assay [2], in assay [3], in [4], in [5] and in assay [6] was > 100 µM in each case. Moreover, the TGI in [7], in assay [8], in assay [9] and in assay [10] was > 100 µM throughout.
For the compound `CC1CC2(C)ON=C(c3ccccc3)N2c2ccccc2S1` (stereo not drawn), the GI50 was 31.4 µM in [1]; 53 µM in assay [2]; 18 µM in assay [3]; 22.4 µM in assay [4]; 9.55 µM in assay [5]; 53.9 µM in [6]. Further, the GI50 was 54.5 µM in assay [7], 16.9 µM in assay [8], 34.4 µM in [9] and 36.3 µM in assay [10]. The TGI in assay [1] came out at 79 µM; in assay [3] it was 34.2 µM; in [4], 51.6 µM; in assay [5], 91.9 µM; in [8], 32.1 µM.
Turning to `COc1ccc2nc(-c3cc(-c4cc(OC)c(OC)c(OC)c4)n[nH]3)[nH]c2c1`, the GI50 in assay [1] is 2.15 µM; in assay [2] it was 1.9 µM; in [3], 2.06 µM; in [4], 2.42 µM; in assay [5], 2.83 µM; in [6] it was 2.98 µM. For the same compound, the GI50 in assay [7] is 2.29 µM; in assay [8], 0.462 µM; in assay [9], 2.92 µM; in assay [10] it was 2.74 µM. Also, the TGI was 6.66 µM in assay [1]; 7.11 µM in assay [2]; 8.45 µM in assay [3]; 9.71 µM in assay [4]; 9.17 µM in assay [5]; 14.1 µM in assay [6]. For the same compound, the TGI was 8.28 µM in [7], 1.77 µM in [8], 12.8 µM in assay [9] and 9.38 µM in assay [10].
On to `COC(=O)NC1C(C)OC(OC2C/C=C(/C)C3C=CC4C(OC5CC(OC6CC(O)C(OC7CC(O)C(OC)C(C)O7)C(C)O6)C(O)C(C)O5)C(C)CC(C)C4C3(C)/C(O)=C3\C(=O)OC4(CC(C)C(CO)=CC4/C=C\2C)C3=O)CC1(C)[N+](=O)[O-]` (stereo not drawn), for which the GI50 in [1] was 11.8 µM; in [2] it was 12.7 µM; in assay [3], 9.65 µM; in assay [4], 11.6 µM; in [5], 10.3 µM; in assay [6], 15.9 µM. In addition, the values for the GI50 in [8] and in assay [9] were 10.9 µM and 16.8 µM, respectively. Also, the TGI was 44 µM and 13.3 µM in [1]; 34 µM and 28.5 µM in assay [2]; 29.1 µM and 40 µM in assay [3]; 24.9 µM and 37.7 µM in assay [4]; 50 µM and 20.9 µM in assay [5]; 50 µM and 52.4 µM in assay [6]. The TGI in assay [7] was 27.5 µM; in [8], 18.7 µM and 33.2 µM; in assay [9], 21.9 µM and 32.3 µM; in [10], 50 µM and 55.1 µM.
